Key:
Assay type in all cases: in vivo
Details in all cases: 250 g/ha unless otherwise stated, evaluated after 13 days, five-point scale
[1] = tested on: Echinochloa crus-galli (ECHCG); assay: Test 1 glasshouse herbicide test, pre-emergence application (Table B2)
Method in brief: (§1)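 Score is % phytotoxicity after 13 days, binned 1 (0–20%) to 5 (81–100%). Compound given at 250 g/ha unless stated, as acetone/water (50:50) spray with 0.5% Tween 20, one day post-sowing (pre-emergence) or after 8 days' growth (post-emergence); glasshouse at 24/16 °C day/night, 14 h light, 65% humidity.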

[2] = tested on: Amaranthus retoflexus (AMARE); assay: as above
Method in brief: as §1

Lolium perenne (LOLPE) [3] = assay: as above
Method in brief: as §1

Solanum nigrum (SOLNI) [4] = assay: as above
Method in brief: as §1

Setaria faberi (SETFA) [5] = assay: as above
Method in brief: as §1

[6] = tested on: Ipomoea hederacea (IPOHE); assay: as above
Method in brief: as §1

[7] = tested on: Echinochloa crus-galli (ECHCG); assay: Test 1 glasshouse herbicide test, post-emergence application (Table B1)
Method in brief: as §1

[8] = tested on: Amaranthus retoflexus (AMARE); assay: as above
Method in brief: as §1

Lolium perenne (LOLPE) [9] = assay: as above
Method in brief: as §1

Solanum nigrum (SOLNI) [10] = assay: as above
Method in brief: as §1

Setaria faberi (SETFA) [11] = assay: as above
Method in brief: as §1

[12] = tested on: Ipomoea hederacea (IPOHE); assay: as above
Method in brief: as §1

SMILES	% phytotoxicity ECHCG, pre-emergence application [1]	% phytotoxicity AMARE, pre-emergence application [2]	% phytotoxicity LOLPE, pre-emergence application (Lolium perenne (LOLPE) [3])	% phytotoxicity SOLNI, pre-emergence application (Solanum nigrum (SOLNI) [4])	% phytotoxicity SETFA, pre-emergence application (Setaria faberi (SETFA) [5])	% phytotoxicity IPOHE, pre-emergence application [6]	% phytotoxicity ECHCG, post-emergence application [7]	% phytotoxicity AMARE, post-emergence application [8]	% phytotoxicity LOLPE, post-emergence application (Lolium perenne (LOLPE) [9])	% phytotoxicity SOLNI, post-emergence application (Solanum nigrum (SOLNI) [10])	% phytotoxicity SETFA, post-emergence application (Setaria faberi (SETFA) [11])	% phytotoxicity IPOHE, post-emergence application [12]
O=S(=O)(CCC(F)(F)F)c1c(F)cccc1Oc1ncc(Cl)cn1 [Compound A9]	4 (4=61 to 80%)	5 (5=81 to 100%)	4 (4=61 to 80%)	5 (5=81 to 100%)	5 (5=81 to 100%)	4 (4=61 to 80%)	3 (3=41 to 60%)	5 (5=81 to 100%)	3 (3=41 to 60%)	5 (5=81 to 100%)	4 (4=61 to 80%)	3 (3=41 to 60%)
FC(F)(F)CCSc1c(Cl)cccc1Oc1ncc(Cl)cn1 [Compound A10, 5-chloro-2-[3-chloro-2-(3,3,3-trifluoropropylsulfanyl)phenoxy]pyrimidine]	5 (5=81 to 100%)	5 (5=81 to 100%)	4 (4=61 to 80%)	4 (4=61 to 80%)	5 (5=81 to 100%)	3 (3=41 to 60%)	5 (5=81 to 100%)	5 (5=81 to 100%)	5 (5=81 to 100%)	5 (5=81 to 100%)	5 (5=81 to 100%)	4 (4=61 to 80%)
[O-][S+](CCC(F)(F)F)c1c(Cl)cccc1Oc1ncc(Cl)cn1 (stereo not drawn) [Compound A11]	5 (5=81 to 100%)	5 (5=81 to 100%)	5 (5=81 to 100%)	5 (5=81 to 100%)	5 (5=81 to 100%)	5 (5=81 to 100%)	5 (5=81 to 100%)	5 (5=81 to 100%)	4 (4=61 to 80%)	5 (5=81 to 100%)	5 (5=81 to 100%)	5 (5=81 to 100%)
O=S(=O)(CCC(F)(F)F)c1c(Cl)cccc1Oc1ncc(Cl)cn1 [Compound A12]	5 (5=81 to 100%)	5 (5=81 to 100%)	5 (5=81 to 100%)	5 (5=81 to 100%)	5 (5=81 to 100%)	5 (5=81 to 100%)	5 (5=81 to 100%)	5 (5=81 to 100%)	5 (5=81 to 100%)	5 (5=81 to 100%)	5 (5=81 to 100%)	4 (4=61 to 80%)
N#Cc1cccc(Oc2ncc(Cl)cn2)c1SCCC(F)(F)F [Compound A13]	5 (5=81 to 100%)	5 (5=81 to 100%)	5 (5=81 to 100%)	5 (5=81 to 100%)	5 (5=81 to 100%)	4 (4=61 to 80%)	5 (5=81 to 100%)	5 (5=81 to 100%)	5 (5=81 to 100%)	5 (5=81 to 100%)	5 (5=81 to 100%)	4 (4=61 to 80%)
N#Cc1cccc(Oc2ncc(Cl)cn2)c1[S+]([O-])CCC(F)(F)F (stereo not drawn) [Compound A14]	5 (5=81 to 100%)	5 (5=81 to 100%)	3 (3=41 to 60%)	5 (5=81 to 100%)	5 (5=81 to 100%)	5 (5=81 to 100%)	5 (5=81 to 100%)	5 (5=81 to 100%)	4 (4=61 to 80%)	5 (5=81 to 100%)	5 (5=81 to 100%)	5 (5=81 to 100%)
N#Cc1cccc(Oc2ncc(Cl)cn2)c1S(=O)(=O)CCC(F)(F)F [Compound A15]	5 (5=81 to 100%)	5 (5=81 to 100%)	5 (5=81 to 100%)	5 (5=81 to 100%)	5 (5=81 to 100%)	5 (5=81 to 100%)	5 (5=81 to 100%)	5 (5=81 to 100%)	4 (4=61 to 80%)	5 (5=81 to 100%)	5 (5=81 to 100%)	5 (5=81 to 100%)
Clc1cnc(Oc2ccccc2SCc2ccccc2)nc1 [Compound A16]	2 (2=21 to 40%)	4 (4=61 to 80%)	1 (1=0 to 20%)	1 (1=0 to 20%)	2 (2=21 to 40%)	1 (1=0 to 20%)	1 (1=0 to 20%)	4 (4=61 to 80%)	1 (1=0 to 20%)	3 (3=41 to 60%)	2 (2=21 to 40%)	1 (1=0 to 20%)
O=S(=O)(CCCC(F)(F)F)c1c(Cl)cccc1Oc1ncc(Cl)cn1 [Compound A24]	5 (5=81 to 100%)	5 (5=81 to 100%)	4 (4=61 to 80%)	5 (5=81 to 100%)	5 (5=81 to 100%)	5 (5=81 to 100%)	5 (5=81 to 100%)	5 (5=81 to 100%)	5 (5=81 to 100%)	5 (5=81 to 100%)	5 (5=81 to 100%)	5 (5=81 to 100%)
FC(F)(F)CCCSc1c(Cl)cccc1Oc1ncc(Cl)cn1 [Compound A25]	5 (5=81 to 100%)	5 (5=81 to 100%)	5 (5=81 to 100%)	5 (5=81 to 100%)	5 (5=81 to 100%)	1 (1=0 to 20%)	5 (5=81 to 100%)	5 (5=81 to 100%)	5 (5=81 to 100%)	5 (5=81 to 100%)	5 (5=81 to 100%)	3 (3=41 to 60%)
[O-][S+](CCCC(F)(F)F)c1c(Cl)cccc1Oc1ncc(Cl)cn1 (stereo not drawn) [Compound A26]	5 (5=81 to 100%)	5 (5=81 to 100%)	5 (5=81 to 100%)	5 (5=81 to 100%)	5 (5=81 to 100%)	5 (5=81 to 100%)	5 (5=81 to 100%)	5 (5=81 to 100%)	5 (5=81 to 100%)	5 (5=81 to 100%)	5 (5=81 to 100%)	5 (5=81 to 100%)
Clc1ccc(CSc2ccccc2Oc2ncc(Cl)cn2)cc1 [Compound A27]	4 (4=61 to 80%)	5 (5=81 to 100%)	1 (1=0 to 20%)	2 (2=21 to 40%)	4 (4=61 to 80%)	1 (1=0 to 20%)	2 (2=21 to 40%)	5 (5=81 to 100%)	1 (1=0 to 20%)	3 (3=41 to 60%)	2 (2=21 to 40%)	2 (2=21 to 40%)
